# Experiments:
# Type in all cases: in vivo, mouse
# [1] = test system: Acute Renal Failure Animal Model; test: Acute renal failure animal model, pathological tissue specimen (HE staining) lesion scores; settings: 10 mg/kg
# Method: 24 hours after the ischemia and reperfusion processes, urine was collected for 24 hours using a metabolic cage, measurement of body weight was conducted, and blood was collected. Thereafter, nephrectomy was conducted, and formalin-fixed kidney was permeated with paraffin using an automatic embedding device to produce a paraffin block. The paraffin block was sliced into 3 μm sections with a microtome, and placed on a slide glass. Then, the sections were stretched with a paraffin stretcher at 52° C., and sufficiently dried overnight in a paraffin melter at 37° C. After deparaffinization and washing with water, the sections were stained with a Mayer's hematoxylin staining solution for 1 minute and washed with running water for 15 minutes. Thereafter, the sections were stained with an eosin staining solution for 45 seconds, and dehydrated with 80% to 100% ethanol, followed by clearing with xylene and sealing with marinol. Each specimen was examined microscopically at a magnification of 50 using an optical microscope. With respect to tubular dilatation, tubular necrosis, and tubular casts in the cortex, outer zone of outer medulla, and inner zone of outer medulla, the percentage of lesions in each site was evaluated according to the following criteria.
# In Table 12, the experimental results are expressed in mean±standard error in eight mice in each group. For comparison among multiple groups, firstly, one-way analysis of variance (ANOVA) was conducted, and then a Bonferroni test was conducted, if significant difference was recognized. Significant difference was recognized with a significance level of less than 5% (P<0.05).
# [2] = test system: Acute Renal Disease (Cisplatin Nephropathy) Animal Model; test: Cisplatin nephropathy model, histopathological study (HE staining); settings: 10 mg/kg 1 day after cisplatin
# Method: (§1) In Tables 13 to 15, the experimental results are expressed in mean±standard error. The RT-PCR results were corrected with the amount of β-Actin as an endogenous control gene. With reference to statistically significant difference, an unpaired test between two groups (Student's t-test) was conducted for comparison between two groups, and one-way analysis of variance was conducted and then a Dunnett test was conducted for comparison among multiple groups. Further, in the histopathological study, a Mann-Whitney U test was conducted, and in all cases, a significance level of 5% or less (P<0.05) was regarded as significant difference.
# 10 mg/kg of SMTP-7 was administered 1 day after administration of cisplatin, and 3 days later, the kidney was isolated by the same method as in the evaluation of real time RT-PCR, and the histopathological study was conducted.
# Formalin-fixed kidney was permeated with paraffin using an automatic embedding device to produce a paraffin block. The paraffin block was sliced into 3 μm sections with a microtome, and placed on a slide glass. Then, the sections were stretched with a paraffin stretcher at 52° C., and sufficiently dried overnight in a paraffin melter at 37° C. After deparaffinization and washing with water, the sections were stained with a Mayer's hematoxylin staining solution for 1 minute and washed with running water for 15 minutes. Thereafter, the sections were stained with an eosin staining solution for 45 seconds, and dehydrated with 80% to 100% ethanol, followed by clearing with xylene and sealing with marinol. Each specimen was examined microscopically at a magnification of 50 using an optical microscope. The degree of damage was examined microscopically at a magnification of 100 and 5 fields of view (1 field=2 mm, 5 fields=10 mm) and scored according to the following criteria. • Score 0: No significant change • Score 1: damage range 1 mm or less • Score 2: damage range 1 to 2 mm • Score 3: damage range 2 to 5 mm • Score 4: damage range 5 mm or more
# [3] = test system: Acute Renal Disease (Cisplatin Nephropathy) Animal Model; test: Test using acute renal disease (cisplatin nephropathy) animal model, BUN and sCr; settings: mean±SE
# Method: A male ddY strain mouse (30 to 40 g) was used as an experimental animal. Under anesthesia with isoflurane, cisplatin (20 mg/kg) was injected into the femoral vein at a constant rate over 15 minutes to induce nephropathy. 3 days later, blood was collected from the descending vena cava, and after separating serum, blood urea nitrogen (BUN) and serum creatinine (sCr) were measured to evaluate renal function. Further, the kidney was isolated after perfusion, RNA was extracted, reverse transcription was conducted, real-time RT-PCR was conducted using the produced cDNA as a template, and the effect on TNF-α mRNA expression in renal tissues was also studied. A group to which physiological saline was administered instead of cisplatin was designated as the sham group.
# In order to study the timing of administration, a drug (10 mg/kg) was injected into the femoral vein at a constant rate simultaneously with cisplatin, or 1 or 2 days later. In order to study dose relationship, a drug (0.1 mg/kg, 1 mg/kg, or 10 mg/kg) was injected to the femoral vein at a constant rate.
# Further, in order to study the effect on TNF-α mRNA expression and histopathological study, a drug (10 mg/kg) was similarly administered 1 day after administration of cisplatin.
# The collected blood was centrifuged at 3000 rpm for 15 minutes, serum was separated, and BUN and sCr were measured. In the measurement, BUN was measured using Urea B-test Wako (manufactured by Wako Pure Chemical Industries, Ltd.) and a QuantiChrom Urea Assay Kit (manufactured by Funakoshi Co., Ltd.), and sCr was measured using Lab Assay Creatinine (manufactured by Wako Pure Chemical Industries, Ltd.).
# as §1
# [4] = points 0 (no lesion) to 4 (severe, 50% or more), mean±SE, 8 mice
# [5] = Score 1: damage range 1 mm or less
# [6] = score 0 (no significant change) to 4 (damage range 5 mm or more), N 7
# [7] = Administration one day later (1 day): 10 mg/kg femoral vein after cisplatin 20 mg/kg, timing study Table 13
# [8] = Administration two days later (2 day): 10 mg/kg femoral vein after cisplatin 20 mg/kg
# [9] = Coadministration: 10 mg/kg femoral vein simultaneously with cisplatin 20 mg/kg, blood 3 days after cisplatin
# [10] = TNF-α study Table 15: 10 mg/kg 1 day after cisplatin
# [11] = dose relationship study Table 14: 0.1 mg/kg femoral vein 1 day after cisplatin, 0.1 mg/kg
# [12] = dose relationship study Table 14: 1 mg/kg femoral vein 1 day after cisplatin, 1 mg/kg
# [13] = dose relationship study Table 14: 1 mg/kg femoral vein 1 day after cisplatin, listed as SMPT-7, 1 mg/kg
# [14] = dose relationship study Table 14: 10 mg/kg femoral vein 1 day after cisplatin, 10 mg/kg
# [15] = dose relationship study Table 14: 10 mg/kg femoral vein 1 day after cisplatin, listed as SMPT-7, 10 mg/kg
smiles,measurement,setting,value
CC(C)=CCC/C(C)=C/CC[C@@]1(C)Oc2c(c(O)cc3c2CN(CCC[C@@H](C(=O)O)N2Cc4c(cc(O)c5c4O[C@](C)(CC/C=C(\C)CCC=C(C)C)[C@@H](O)C5)C2=O)C3=O)C[C@@H]1O [SMTP-7],"Histopathological changes (lesion changes), result in words",[1]; compared to control group,lesion changes other than the lesion change in tubular casts in the renal cortex were significantly improved
same,"Tubular cast score, Cortex",[1]; [4],0.9 ± 0.1
same,"Tubular cast score, Inner zone of outer medulla",[1]; [4],1.0 ± 0.2
same,"Tubular cast score, Outer zone of outer medulla",[1]; [4],0.9 ± 0.1
same,"Tubular dilatation score, Cortex",[1]; [4],2.0 ± 0.3
same,"Tubular dilatation score, Inner zone of outer medulla",[1]; [4],1.0 ± 0.2
same,"Tubular dilatation score, Outer zone of outer medulla",[1]; [4],1.4 ± 0.4
same,"Tubular necrosis score, Cortex",[1]; [4],0.4 ± 0.2
same,"Tubular necrosis score, Inner zone of outer medulla",[1]; [4],0.5 ± 0.2
same,"Tubular necrosis score, Outer zone of outer medulla",[1]; [4],0.4 ± 0.2
same,"Degeneration Necrosis, animals with Score 0",[2]; Score 0: No significant change,2/7
same,"Regeneraed tubules, animals with Score 0",[2]; Score 0: No significant change,7/7
same,"Tublar dilatatuon (Hyoline casts), animals with Score 0",[2]; Score 0: No significant change,6/7
same,"Degeneration Necrosis, animals with Score 1",[2]; [5],2/7
same,"Tublar dilatatuon (Hyoline casts), animals with Score 1",[2]; [5],1/7
same,"Degeneration Necrosis, animals with Score 2",[2]; Score 2: damage range 1 to 2 mm,1/7
same,"Degeneration Necrosis, animals with Score 3",[2]; Score 3: damage range 2 to 5 mm,1/7
same,"Degeneration Necrosis, animals with Score 4",[2]; Score 4: damage range 5 mm or more,1/7
same,"Histopathological changes in the proximal tubules, result in words",[2]; compared to Control group,the level was lower than that in the Control group and no significant difference was recognized
same,"Degeneration Necrosis, Mean score",[2]; [6],1.6
same,"Regeneraed tubules, Mean score",[2]; [6],0.0
same,"Tublar dilatatuon (Hyoline casts), Mean score",[2]; [6],0.1
same,BUN,[3]; [7],44.5 ± 2.19 mg/dL
same,sCr,[3]; [7],0.80 ± 0.07 mg/dL
same,BUN,[3]; [8],74.2 ± 17.8 mg/dL
same,sCr,[3]; [8],0.78 ± 0.18 mg/dL
same,BUN,[3]; [9],66.3 ± 9.23 mg/dL
same,sCr,[3]; [9],0.81 ± 0.09 mg/dL
same,BUN,[3]; [10],55.9 ± 5.20 mg/dL
same,sCr,[3]; [10],0.41 ± 0.07 mg/dL
same,BUN,[3]; [11],57.0 ± 5.47 mg/dL
same,sCr,[3]; [11],0.78 ± 0.08 mg/dL
same,BUN,[3]; [12],45.0 ± 6.28 mg/dL
same,sCr,[3]; [12],0.65 ± 0.09 mg/dL
same,BUN,[3]; [13],45.0 ± 6.28 mg/dL
same,sCr,[3]; [13],0.65 ± 0.09 mg/dL
same,BUN,[3]; [14],32.1 ± 4.63 mg/dL
same,sCr,[3]; [14],0.53 ± 0.03 mg/dL
same,BUN,[3]; [15],32.1 ± 4.63 mg/dL
same,sCr,[3]; [15],0.53 ± 0.03 mg/dL
